Data reported in patent US9828350B2, “5,6-dihydro-2H-[1,4]oxazin-3-yl-amine derivatives useful as inhibitors of beta-secretase (BACE)” (Janssen Pharmaceutica NV, priority 2010, dated 2017).

What was measured:
[1] = system: Abeta total; test: Cellular αLisa assay in SKNBE2 cells, Abeta total; format: cell-based, human; details: incubated for 18 hours; for IC50: Homo sapiens, SKNBE2, 18 h, read-out: Cellular αLisa assay in SKNBE2 cells Abetatotal pIC50 (converted)
Procedure, shortened: (§1)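 Secreted Abeta levels were measured by sandwich αLisa, pairing biotin-AbN/25 donor beads with Ab4G8 acceptor beads for total Abeta or cAb42/26 for Abeta 1-42, read at 615 nm after 650 nm excitation following 1 hour. Cells were SKNBE2 expressing wild-type hAPP695, exposed to compound for 18 hours.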

[2] = target: T1, P-gp (Homo sapiens, UniProt P08183); test: Transepithelial transport of test compounds through LLC-MDR1 monolayers; format: in vitro ADME; details: for efflux ratio at 120 min, 1 μM / Papp A→B at 120 min, 1 μM / Papp B→A at 120 min, 1 μM: pig, LLC-PK1; for efflux ratio at 120 min, 1 μM: read-out: BA/AB; for Papp A→B at 120 min, 1 μM: read-out: A to B (Apparent Permeability, Papp); for Papp B→A at 120 min, 1 μM: read-out: B to A (Apparent Permeability, Papp); for A to B (Apparent Permeability, Papp) / B to A (Apparent Permeability, Papp): 1 μM test compound, 120 minutes; for A to B (Apparent Permeability, Papp): apical to basolateral, absence of GF120918; for B to A (Apparent Permeability, Papp): basolateral to apical
T1 construct: expressed in transfected cells; host or cells: LLC-PK1 cells stably transduced with MDR1 (LLC-MDR1)
Method: Brief Assay Description for the Measurement of Transepithelial Transport of Test Compounds Through LLC-MDR1 Monolayers
The purpose of this assay was to assess both the in vitro passive permeability of test compounds and their ability to be transported substrates of P-gp using LLC-PK1 cells stably transduced with MDR1 in a trans-well system. The positive control for transport was ^3H-digoxin (30 nM) and the positive control inhibitor was GF120918 (5 μM). The marker compound for low permeability was ^14C-Mannitol (1 μM). The test compound concentration was 1 μM.
The integrity of the cellular monolayer was assessed in each incubation well through the inclusion of the fluorescent, low permeability marker compound, Fluorescein.
In detail, LLC-MDR1 cells were seeded on 24-well cell culture inserts (Millicell®-PCF, 0.4 μm, 13 mm diameter, 0.7 cm^2) at 400,000 cells/cm^2. Cell culture medium consisted of Medium 199 supplemented with 10% Foetal Bovine Serum (FBS) and 100 U/ml Penicillin/streptomycin and was replaced the day after seeding and the day before the experiment. The transport experiment was performed 5 days after seeding. On the day of the experiment, solutions of the test compounds were applied to the apical or basolateral side of the monolayers to assess transport in the A to B and B to A directions, respectively. The medium used in the assay was (OPTI-MEM (1×) (GIBCO) with 1 w/v % Bovine Serum Albumin. Inserts were incubated at 37° C. in a humidified incubator containing 5% CO2. Samples from the acceptor and donor compartments were collected after an incubation time of 120 min, to assess the permeability and to allow estimation of the test compound recovery during the experiment, respectively. Transport experiments were performed in triplicate. Absolute test compound concentrations were measured using LC-MS/MS and quantified via a calibration curve.

[3] = target: recombinant BACE1 protein (Homo sapiens, UniProt P56817); test: Biochemical FRET based assay; details: recombinant BACE1 1 μg/ml, 120 minutes at room temperature, pH 5.0; for IC50: read-out: Biochemical FRET based assay pIC50 (converted)
Procedure, shortened: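 Proteolysis was read as the rise in donor fluorescence (320 nm excitation, 405 nm emission) from T0 to T120, expressed in RFU. The reaction ran 120 minutes at room temperature at pH 5.0 in citrate buffer with 4% DMSO, using […] quenched Swedish APP peptide and 1 μg/ml BACE1.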

[4] = system: Abeta 1-42; test: Cellular αLisa assay in SKNBE2 cells, Abeta 1-42; format: cell-based, human; details: incubated for 18 hours; for IC50: Homo sapiens, SKNBE2, 18 h, read-out: Cellular αLisa assay in SKNBE2 cells Abeta 42 pIC50 (converted)
Procedure, shortened: as §1

[5] = LLC-MDR1 monolayers, ratio of B to A and A to B permeation rates

T1 sequence (P08183 whole entry): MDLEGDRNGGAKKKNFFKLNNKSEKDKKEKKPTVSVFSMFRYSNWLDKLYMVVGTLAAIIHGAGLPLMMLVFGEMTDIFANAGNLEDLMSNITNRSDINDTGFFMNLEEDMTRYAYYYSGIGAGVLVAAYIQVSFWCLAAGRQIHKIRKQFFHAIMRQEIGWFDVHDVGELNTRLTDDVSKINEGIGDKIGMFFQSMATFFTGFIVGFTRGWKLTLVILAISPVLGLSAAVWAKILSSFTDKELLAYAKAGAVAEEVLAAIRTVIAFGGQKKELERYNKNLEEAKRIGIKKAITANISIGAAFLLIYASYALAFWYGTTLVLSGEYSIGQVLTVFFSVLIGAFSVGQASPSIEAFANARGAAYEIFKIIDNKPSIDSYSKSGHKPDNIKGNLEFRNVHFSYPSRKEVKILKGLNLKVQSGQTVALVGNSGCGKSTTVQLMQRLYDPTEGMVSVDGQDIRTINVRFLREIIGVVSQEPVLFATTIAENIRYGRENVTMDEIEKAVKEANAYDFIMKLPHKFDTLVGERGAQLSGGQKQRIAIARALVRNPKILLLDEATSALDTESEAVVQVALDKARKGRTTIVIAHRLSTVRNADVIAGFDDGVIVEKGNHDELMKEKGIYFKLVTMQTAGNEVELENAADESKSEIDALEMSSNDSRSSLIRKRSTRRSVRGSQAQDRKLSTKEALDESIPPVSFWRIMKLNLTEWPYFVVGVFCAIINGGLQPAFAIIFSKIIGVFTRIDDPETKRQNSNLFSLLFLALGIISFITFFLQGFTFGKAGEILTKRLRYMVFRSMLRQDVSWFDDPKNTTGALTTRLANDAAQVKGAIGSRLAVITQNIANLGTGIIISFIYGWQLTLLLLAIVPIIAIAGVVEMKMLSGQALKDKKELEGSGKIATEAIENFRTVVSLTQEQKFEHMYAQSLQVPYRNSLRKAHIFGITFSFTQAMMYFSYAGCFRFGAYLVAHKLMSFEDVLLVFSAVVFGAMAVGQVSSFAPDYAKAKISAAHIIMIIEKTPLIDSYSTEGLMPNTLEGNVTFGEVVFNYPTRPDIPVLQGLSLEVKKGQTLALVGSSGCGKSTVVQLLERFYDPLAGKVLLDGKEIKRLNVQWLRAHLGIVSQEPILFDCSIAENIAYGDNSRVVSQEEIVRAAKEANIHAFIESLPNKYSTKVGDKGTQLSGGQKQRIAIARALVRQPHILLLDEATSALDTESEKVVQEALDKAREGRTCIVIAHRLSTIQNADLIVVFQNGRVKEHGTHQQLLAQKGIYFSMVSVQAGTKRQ
Sequence of recombinant BACE1 protein (P56817 46-501): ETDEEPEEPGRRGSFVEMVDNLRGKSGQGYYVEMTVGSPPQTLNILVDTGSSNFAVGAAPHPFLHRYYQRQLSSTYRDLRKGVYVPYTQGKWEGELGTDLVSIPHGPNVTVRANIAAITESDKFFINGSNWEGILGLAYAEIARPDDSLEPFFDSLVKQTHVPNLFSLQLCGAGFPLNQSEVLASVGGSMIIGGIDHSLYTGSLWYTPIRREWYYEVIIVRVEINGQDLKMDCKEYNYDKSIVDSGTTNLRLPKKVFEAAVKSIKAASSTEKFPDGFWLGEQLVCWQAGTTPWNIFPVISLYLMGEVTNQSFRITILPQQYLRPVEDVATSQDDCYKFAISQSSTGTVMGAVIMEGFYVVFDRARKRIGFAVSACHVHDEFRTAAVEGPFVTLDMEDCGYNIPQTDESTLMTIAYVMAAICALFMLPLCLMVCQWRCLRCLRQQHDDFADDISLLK

Compound	Cellular αLisa assay in SKNBE2 cells Abetatotal pIC50 [1]	melting point [°C]	IC50 [3] [µM]	Cellular αLisa assay in SKNBE2 cells Abeta 42 pIC50 [4]	IC50 [1] [µM]	IC50 [4] [µM]	also measured
CC1(c2cc(-c3cncnc3)ccc2F)N=C(N)COC1C(F)(F)F (single isomer, unassigned) [Compound 106]	6.23	173.8	4.37	6.2			efflux ratio at 120 min, 1 μM [2, 5]: 1.1; Papp A→B at 120 min, 1 μM [2]: 182 nm/s; Papp B→A at 120 min, 1 μM [2]: 198 nm/s
COc1cncc(-c2cccc(C3(C)N=C(N)COC3(F)C(F)(F)F)c2)c1 (single isomer, unassigned) [Compound 118]	7.18		0.191	7.23			efflux ratio at 120 min, 1 μM [2, 5]: 1.3; Papp A→B at 120 min, 1 μM [2]: 120 nm/s; Papp B→A at 120 min, 1 μM [2]: 150 nm/s
COc1cncc(-c2cccc(C3(C)COCC(N)=N3)c2)c1 (racemic) [Compound 4, rac-5-[3-(5-methoxypyridin-3-yl)phenyl]-5-methyl-5,6-dihydro-2H-1,4-oxazin-3-amine]		150	3.64		0.219	0.257	efflux ratio at 120 min, 1 μM [2, 5]: 25.9
CC1(c2cccc(NC(=O)c3ncccc3F)c2)COCC(N)=N1 (racemic) [Compound 6, rac-N-[3-(5-amino-3-methyl-3,6-dihydro-2H-1,4-oxazin-3-yl)phenyl]-3-fluoropyridine-2-carboxamide]		155.6	5.13		0.457	0.513	
CC1(c2cccc(-c3cncnc3)c2)N=C(N)COC1F (single isomer, unassigned) [Compound 94]	5.34	115.4	> 30.2	5.43			
CC1(c2cc(-c3cncnc3)ccc2F)N=C(N)COC1F (single isomer, unassigned) [Compound 75]	5.46	227.7	9.77	5.46			
CC1(c2cccc(-c3cncnc3)c2)N=C(N)COC1F (stereo not drawn) [Compound 99]	5.73	204.3	20.9	5.87			
COc1cncc(-c2cccc(C3(C)N=C(N)COC3F)c2)c1 (single isomer, unassigned) [Compound 93]	6.97		0.468	6.98			efflux ratio at 120 min, 1 μM [2, 5]: 4.6; Papp A→B at 120 min, 1 μM [2]: 74 nm/s; Papp B→A at 120 min, 1 μM [2]: 343 nm/s
C[C@]1(c2cc(-c3cncnc3)c(F)cc2F)N=C(N)CO[C@H]1C(F)(F)F [Compound 254]		101.3	0.851		0.316	0.347	
C[C@]1(c2cc(-c3cncc(C#N)c3)c(F)cc2F)N=C(N)CO[C@@H]1C(F)(F)F [Compound 317]		177.94	2.04		0.468	0.55	
CC1(c2cccc(-c3cncnc3)c2)N=C(N)COC1F (stereo not drawn) [Compound 98]	6.14	189.3	2.82	6.19			
NC1=NC(c2cccc(NC(=O)c3ccc(Cl)cn3)c2)(C2CC2)COC1 (racemic) [Compound 153, rac-N-[3-(5-Amino-3-cyclopropyl-3,6-dihydro-2H-1,4-oxazin-3-yl)phenyl]-5-chloropyridine-2-carboxamide]		161.5	0.0891		0.0132	0.0115	
COc1cnc(C(=O)Nc2ccc(F)c([C@]3(C)COCC(N)=N3)c2)cn1 [Compound 39]	8.38			8.27			A to B (Apparent Permeability, Papp) ([2]; LLC-MDR1 monolayers): 37 nm/s; B to A (Apparent Permeability, Papp) ([2]; LLC-MDR1 monolayers): 342 nm/s
COc1cnc(C(=O)Nc2ccc(F)c([C@]3(C4CC4)COCC(N)=N3)c2)cn1 [Compound 299]		196.4	0.17		0.0214	0.024	

Further lines, with some results ahead:

Cellular αLisa assay in SKNBE2 cells Abetatotal pIC50 [1]	melting point [°C]	IC50 [3] [µM]	Cellular αLisa assay in SKNBE2 cells Abeta 42 pIC50 [4]	IC50 [1] [µM]	IC50 [4] [µM]	Compound	also measured
	62	1.41		1.74	2.19	C[C@]1(c2cc(-c3cncnc3)c(F)cc2F)N=C(N)CO[C@@]1(F)C(F)(F)F [Compound 211]	
7.52			7.53			CC1(c2cccc(NC(=O)c3ccc(Cl)cn3)c2)N=C(N)COC1(F)C(F)(F)F (single isomer, unassigned) [Compound 113]	Papp A→B at 120 min, 1 μM [2]: 90 nm/s; Papp B→A at 120 min, 1 μM [2]: 98 nm/s
	145.3	6.46		> 10	> 10	C[C@]1(c2cc(-c3cncc(Cl)c3)c(F)cc2F)N=C(N)CO[C@]1(F)C(F)(F)F [Compound 212]	
6.02	93.3	5.75	6.0			CC1(c2cc(NC(=O)c3ncc(Cl)cc3Cl)ccc2F)N=C(N)COC1F (single isomer, unassigned) [Compound 128]	
	165.14	0.166		0.195	0.2	C[C@]1(c2cc(NC(=O)c3ncc(Cl)cc3Cl)ccc2F)N=C(N)CO[C@]1(F)C(F)(F)F [Compound 185]	
	175.32	1		0.166	0.17	CC1(c2cc(NC(=O)c3ccc(Cl)cn3)cc(C(F)(F)F)c2)COCC(N)=N1 (stereo not drawn) [Compound 197]	
8.45			8.34			C[C@@]1(c2cc(NC(=O)c3ccc(C#N)cn3)ccc2F)COCC(N)=N1 [Compound 43]	A to B (Apparent Permeability, Papp) ([2]; LLC-MDR1 monolayers): 14 nm/s; B to A (Apparent Permeability, Papp) ([2]; LLC-MDR1 monolayers): 266 nm/s; BA/AB [2, 5]: 18.5; Biochemical FRET based assay pIC50 [3]: 7.14
<5	179.18	> 30.2	<5			CC1(c2cccc(NC(=O)c3ncc(Cl)cc3F)c2)N=C(N)COC1(F)C(F)(F)F (single isomer, unassigned) [Compound 174]	
	196.01	0.0407		0.0138	0.0145	C[C@]1(c2cc(NC(=O)c3ccc(C#N)cn3)ccc2F)N=C(N)CO[C@@]1(F)C(F)(F)F [Compound 183]	
<5	189.29	> 30.2	<5			CC1(c2cccc(NC(=O)c3ccncn3)c2)N=C(N)COC1(F)C(F)(F)F (single isomer, unassigned) [Compound 189]	
5.95	189.64	10.2	5.92			CC1(c2cccc(NC(=O)c3ccncn3)c2)N=C(N)COC1(F)C(F)(F)F (single isomer, unassigned) [Compound 187]	
	> 300	12		> 10	> 10	C[C@]1(c2cc(-c3cncnc3)c(F)cc2F)N=C(N)CO[C@]1(F)C(F)(F)F [Compound 210]	
